From ChEMBL document CHEMBL3507680, “University of Dundee, Gates Library screen for HepG2 cell viability”

Assay: Human HepG2 cell viability assay in 384 well format
Type: toxicity, cell-based
Parameters: dose 125 nL, time 70.5 hour; cytotoxicity at 70.5 h: concentration not given beside the values
Details: HepG2 cells, read-out: Inhibition

| Structure (SMILES) | cytotoxicity at 70.5 h [%] |
| --- | --- |
| Cc1c(Cl)ccc2ccc(NC(CO)CO)nc12 | 6.75 |
| Cc1ccc(Cl)c2ccc(NC(CO)CO)nc12 | 0.998 |
| Cc1nnc2ccc(C(=O)N3CCSC(C)(C)C3)cn12 | 11.4 |
| Cc1nnc(CN(C)Cc2nc3c(s2)CCCC3)o1 | -5.09 |
| CN(Cc1nnc(-c2cccs2)o1)Cc1nc2c(s1)CCCC2 | -14.1 |
| CCOCC(=O)N(Cc1ccco1)c1ccc(OC)c(F)c1 | -5.82 |
| CN1CCN(CC(=O)NCc2ccco2)Cc2ccccc21 | -13.5 |
| Fc1ccc(-c2nnc(CNC3CCc4ncnn4C3)o2)cc1 (centres undefined) | -12.1 |
| COC(=O)N1CCCC(C(=O)N(C)C)C1 (centres undefined) | -9.72 |
| Cc1nc(CN2CCCC(N(C)c3ccc(C#N)cn3)C2)no1 (centres undefined) | -2.54 |
| NC(=O)NC(=O)CNc1cccc(C(=O)c2ccccc2)c1 | 13.6 |
| CCNC(=O)NC(=O)CNc1cccc(C(=O)c2ccccc2)c1 | -12.7 |
| CN(C)C(=O)C1CCN(C(=O)c2c[nH]c3cc(Cl)ccc23)CC1 | -8.29 |
| CC(C)(C)C(=O)NCC(=O)NCCc1nc(C(F)(F)F)cs1 | -9.84 |
| CN(Cc1ccccc1F)C(=O)Cn1cc(NC(=O)C(C)(C)C)cn1 | 10.7 |
| O=C(Nc1ccc(-c2nnc[nH]2)cc1)C1CCN1Cc1ccccc1 (centres undefined) | 14.7 |
| CCS(=O)(=O)NCC(=O)Nc1cc(CC(C)(C)C)n[nH]1 | 0.46 |
| O=C(NC1CCN(c2ncccc2F)C1)c1cccc(-n2ccnn2)c1 (centres undefined) | -6.27 |
| CC(C)(C)c1nc(CNC(=O)N2CCc3ccccc3C2CO)no1 (centres undefined) | -2.31 |
| CCc1nc(CNc2ccc(F)cc2I)no1 | 2.16 |
| Cc1cc(Cl)ccc1NCc1ccc(C(=O)N(C)C)[nH]1 | -4.01 |

| Structure (SMILES) | cytotoxicity at 70.5 h [%] |
| --- | --- |
| Cc1cc(Br)ccc1NCc1ccc(C(=O)N(C)C)[nH]1 | 18.2 |
| CC(c1ccccc1)N(C)C(=O)Cn1cc(NC(=O)C(C)(C)C)cn1 (centres undefined) | -3.77 |
| CC(C)N(C)CC(=O)NCCc1nc(C(F)(F)F)cs1 | -5.26 |
| Cc1cnn(CC(C)Nc2nc(C)cc(N(C)C)n2)c1 (centres undefined) | -6.1 |
| Cc1csc(CCCNC(C)CC(=O)Nc2cccc(C)c2C)n1 (centres undefined) | -4.67 |
| Cc1noc(CCCNC(=O)N2CCc3ccccc3C2CO)n1 (centres undefined) | 14.9 |
| CCc1cnc(CCNC(C)CC(=O)Nc2cccc(C)c2C)s1 (centres undefined) | -5.98 |
| CC(NCC(=O)N(C)C1CC1)c1ccc(S(C)(=O)=O)c(F)c1 (centres undefined) | -9.06 |
| O=C(NC1CCN(CC2CC2)C1)c1ccc(C(=O)c2cc[nH]c2)cc1 (centres undefined) | -9.44 |
| CC(C)c1noc(CS(=O)(=O)CC(=O)NCCOc2ccccc2)n1 | -13.7 |
| COCCCNC(=O)COc1ccccc1C(F)(F)F | -5.58 |
| CC(NC(=O)Cn1cccnc1=O)c1ccc(OC(F)(F)F)cc1 (centres undefined) | -8.28 |
| CC(Sc1nnc(C2CC2)n1CC(N)=O)c1ccc(F)cc1F (centres undefined) | -4.59 |
| NC(=O)C(NC(=O)c1cc(Cl)c[nH]1)c1ccccc1 (centres undefined) | -8.05 |
| COc1ccccc1CC(=O)NC(CC(=O)O)c1ccc(C)cc1 (centres undefined) | -6.19 |
| CC(C)c1noc(CS(=O)(=O)CC(=O)NCC(F)(F)F)n1 | -6.46 |
| Cc1nc(CC(=O)N2CCN(C(C)c3ccccc3F)CC2)cs1 (centres undefined) | -5.6 |
| Cc1ncc(CNC(=O)c2oc3ccccc3c2CN(C)C)s1 | -8.45 |
| Cc1cnccc1NC(=O)CCc1ccsc1 | -13.1 |
| Cc1ccc(C(=O)NCCNC(=O)N(C)C(C)c2ccccn2)cc1 (centres undefined) | -2.96 |
| Cc1ccc(=O)n(CC(=O)N2CCCC(c3nc(C)c(C)s3)C2)n1 (centres undefined) | -5.44 |

| Structure (SMILES) | cytotoxicity at 70.5 h [%] |
| --- | --- |
| CNc1nc(CNC(=O)Nc2ccccc2OC(C)C)cs1 | 14 |
| COC(=O)[C@H]1CCCCN1C(=O)c1cccc(-n2cccn2)c1 | -4.76 |
| Cc1ccn(-c2ccc(NCc3cccnc3N3CCCCC3)nn2)n1 | 12.6 |
| Cn1cc(C(=O)N2CCOc3cc(F)ccc32)ccc1=O | -7.98 |
| O=c1[nH]c(N2CC(O)C2)nc2c1cnn2-c1ccccc1 | -9.7 |
| COC(=O)C1(C)CCN(C(=O)NCCc2c(C)[nH]c3ccccc23)C1 (centres undefined) | -3.86 |
| CC(OCC1CC1)C(=O)NCc1ccc(Cn2ccnc2)cc1 (centres undefined) | -6.63 |
| Cc1noc(C)c1CN1CCCC(CN(C(=O)OC(C)(C)C)C(C)C)C1 (centres undefined) | -3.37 |
| CCn1c(C)nnc1CN(C)C1CCN(Cc2nccn2C)C1 (centres undefined) | 3.01 |
| CCOc1ccccc1CSc1nnc(CC2CCS(=O)(=O)C2)n1C (centres undefined) | -11.4 |
| Cn1c(CC2CCS(=O)(=O)C2)nnc1SCCOc1cccc(Cl)c1 (centres undefined) | -11.2 |
| O=C(NCc1cccnc1)C1=NN(c2ccccc2)C(=O)CN1 | -13.9 |
| COCc1ccc(CNC(=O)C2=NN(c3ccccc3)C(=O)CN2)cc1 | -12.2 |
| O=C(NCc1cc[nH]n1)NCC(c1ccco1)N1CCCC1 (centres undefined) | -13.5 |
| O=C(c1ccn(-c2ccccc2Cl)n1)N1CCSCC1 | -14.1 |
| CCS(=O)(=O)NCCNC(=O)c1cc(Cl)c2c(c1)OCCCO2 | -9.4 |
| Cc1nn(C)c(N(C)C)c1CNCc1cccc(CN(C)C(C)C)c1 | -9.1 |
| CCn1nc(-c2ccccc2F)ccc1=O | -8.76 |
| Cn1cc(CNCCOc2ccc(F)c(F)c2)c(-c2cccnc2)n1 | -5.61 |
| Cc1cccc(CNC(CN2CCN(C)CC2)c2ccccc2)c1 (centres undefined) | 10.9 |
| CCN(CC)C(=O)CCNc1cncc(-n2nc(C)cc2C)n1 | -1.19 |

| Structure (SMILES) | cytotoxicity at 70.5 h [%] |
| --- | --- |
| Cc1ccc(C2CSCCN2C(=O)c2ccc(C(N)=O)cc2)o1 (centres undefined) | -9.63 |
| CC(C)OCCN(Cc1cccc(O)c1)C1CCC(O)CC1 (centres undefined) | -3.81 |
| CC(=O)N(Cc1ncc(C)o1)C1CCN(Cc2cccc(C#N)c2)C1 (centres undefined) | -5.2 |
| CC(C)c1csc(C2CCCN(C(=O)c3ncccn3)C2)n1 (centres undefined) | 13 |
| Cc1csc(C2CCCN(C(=O)c3ccc(=O)n(C)n3)C2)n1 (centres undefined) | -9.44 |
| COc1ccc(CN2CCCCC2CNC(=O)OC(C)(C)C)cc1F (centres undefined) | -7.89 |
| CCCc1n[nH]c(C2CN(CCS(=O)(=O)CC)CCO2)n1 (centres undefined) | -7.9 |
| CCCc1n[nH]c(C2CN(CCC(F)(F)F)CCO2)n1 (centres undefined) | -5.18 |
| CC(C)c1n[nH]c(C2CN(CCCS(C)(=O)=O)CCO2)n1 (centres undefined) | -4.2 |
| Cc1cc(C(=O)N2CCc3nnc(N)cc3C2)c(C)n1-c1ccccc1 | -1.62 |
| O=C(NCCc1ccc(Cl)s1)N1CCS(=O)(=O)CC1 | -3.08 |
| O=C(Cc1csc(-c2ccsc2)n1)N1CCN(c2cnccn2)CC1 | -10.1 |
| CNC(=O)CN1CCN(C(=O)c2ccn(C)c(=O)c2)CC1 | 31.2 |
| Cc1ccc(CNC(=O)NCCCO)cc1 | 19.3 |
| CCn1cnnc1CNC(=O)c1cc(Cl)c(I)cc1OC | -7.1 |
| Cc1nn(C)c(C)c1CC(=O)NCc1ccnc(N2CCOCC2)c1 | -6.63 |
| CCn1cnnc1CNC(=O)c1cc(F)ccc1OC | -6.76 |
| CC(NC(=O)NCCCN(C)S(C)(=O)=O)c1ccc(C#N)cc1 (centres undefined) | -4.16 |
| CCc1cccc(N2CCC(NC(=O)C3CCCO3)CC2)c1 (centres undefined) | -3.65 |
| CN(C)c1cccc(C(=O)N2CCC(c3n[nH]c(C4CC4)n3)CC2)c1 | -5.06 |
| CC(C)CN1CCN(C(=O)c2ccn(C)c(=O)c2)CC1 | -9.05 |
